According to a compilation of properties of binary mixtures (doi:10.1080/01932691.2021.1974876):

Assay: xn = mol fraction of the nth substance listed
Conditions: 100 kPa

CO + CC[n+]1ccn(C)c1.N#C[S-]
x2 = 0
Conditions	viscosity [mPa·s]
293.15 K	0.59
303.15 K	0.51
308.15 K	0.48
313.15 K	0.45
323.15 K	0.41

CC[n+]1ccn(C)c1.N#C[S-] + CO
Conditions	electrical conductivity [S/m]	viscosity [mPa·s]
293.15 K, x1 = 0.0988	1.83	2.9
293.15 K, x1 = 0.1966	2.24	5
293.15 K, x1 = 0.3005	2.25	7.5
293.15 K, x1 = 0.3859	2.16	9.5
293.15 K, x1 = 0.5006	2	12.3
293.15 K, x1 = 0.5972	1.87	14.9
293.15 K, x1 = 0.6996	1.76	18
293.15 K, x1 = 0.804	1.68	21
293.15 K, x1 = 0.8997	1.64	24
293.15 K, x1 = 1	1.64	27
298.15 K, x1 = 0.0988	2.08	2.5
298.15 K, x1 = 0.1966	2.44	4.4
298.15 K, x1 = 0.3005	2.45	6.4
298.15 K, x1 = 0.3859	2.36	8.1
298.15 K, x1 = 0.5006	2.2	10.6
298.15 K, x1 = 0.6996	1.96	15.2
298.15 K, x1 = 0.804	1.88	18
298.15 K, x1 = 0.8997	1.84	20
298.15 K, x1 = 1	1.83	23
303.15 K, x1 = 0.0988	2.34	2.1
303.15 K, x1 = 0.1966	2.67	3.8
303.15 K, x1 = 0.3005	2.66	5.5
303.15 K, x1 = 0.5006	2.42	9.1
303.15 K, x1 = 0.5972	2.29	11
303.15 K, x1 = 0.6996	2.18	13.1
303.15 K, x1 = 0.804	2.1	15.3
303.15 K, x1 = 0.8997	2.05	18
308.15 K, x1 = 0.1966	2.89	3.3
308.15 K, x1 = 0.3005	2.88	4.8
308.15 K, x1 = 0.3859	2.81	6.1
308.15 K, x1 = 0.5972	2.52	9.6
308.15 K, x1 = 0.6996	2.41	11.4
308.15 K, x1 = 0.804	2.33	13.4
308.15 K, x1 = 0.8997	2.29	15.5
313.15 K, x1 = 0.0988	2.82	1.7
313.15 K, x1 = 0.1966	3.12	2.9
313.15 K, x1 = 0.3005	3.12	4.2
313.15 K, x1 = 0.3859	3.04	5.3
313.15 K, x1 = 0.5006	2.89	6.9
313.15 K, x1 = 0.5972	2.77	8.3
313.15 K, x1 = 0.6996	2.66	10
313.15 K, x1 = 0.804	2.58	11.7
313.15 K, x1 = 0.8997	2.54	13.5
313.15 K, x1 = 1	2.52	15.4
318.15 K, x1 = 0.0988	3.06	1.5
318.15 K, x1 = 0.1966	3.4	2.5
318.15 K, x1 = 0.3005	3.4	3.6
318.15 K, x1 = 0.3859	3.31	4.6
318.15 K, x1 = 0.5006	3.15	6
318.15 K, x1 = 0.5972	3.04	7.3
318.15 K, x1 = 0.6996	2.93	8.8
318.15 K, x1 = 0.804	2.85	10.3
318.15 K, x1 = 0.8997	2.81	11.9
318.15 K, x1 = 1	2.79	13.6
323.15 K, x1 = 0.0988	3.31	1.35
323.15 K, x1 = 0.3859	3.6	4
323.15 K, x1 = 0.5006	3.4	5.3
323.15 K, x1 = 0.5972	3.3	6.4
323.15 K, x1 = 0.6996	3.22	7.7
